Experimental data: BindingDB's records for patent US9670214 (Dana-Farber Cancer Institute, 2017)
pIC50: −log10 of the molar value.

Key:
[1] = molecular target: Non-specific protein-tyrosine kinase (Homo sapiens, UniProt A9UEZ6); assay: Kinase Assay; conditions: pH 7.5
Source text: (§1) Recombinant abl was expressed in Sf9 insect cells and purified as described above. Bcr-abl immune complexes were obtained with Ab-3 anti-abl monoclonal antibody (Oncogene Science) from Ba/F3.p210 lysates as previously described. […] (Calbiochem buffer and protocol). The reaction was stopped by addition of Laemmli buffer and the proteins were resolved by SDS-PAGE in a 4-20% gel. The phosphoproteins were visualized by autoradiography and the autophosphorylation quantitated using a phosphoimager (STORM, Molecular Devices).

[2] = molecular target: Non-specific protein-tyrosine kinase [T818I] (Homo sapiens, UniProt A9UEZ6, T818I); assay: Kinase Assay; conditions: pH 7.5
Source text: as §1

Chain of Non-specific protein-tyrosine kinase [T818I] (A9UEZ6 as listed by the source T818I): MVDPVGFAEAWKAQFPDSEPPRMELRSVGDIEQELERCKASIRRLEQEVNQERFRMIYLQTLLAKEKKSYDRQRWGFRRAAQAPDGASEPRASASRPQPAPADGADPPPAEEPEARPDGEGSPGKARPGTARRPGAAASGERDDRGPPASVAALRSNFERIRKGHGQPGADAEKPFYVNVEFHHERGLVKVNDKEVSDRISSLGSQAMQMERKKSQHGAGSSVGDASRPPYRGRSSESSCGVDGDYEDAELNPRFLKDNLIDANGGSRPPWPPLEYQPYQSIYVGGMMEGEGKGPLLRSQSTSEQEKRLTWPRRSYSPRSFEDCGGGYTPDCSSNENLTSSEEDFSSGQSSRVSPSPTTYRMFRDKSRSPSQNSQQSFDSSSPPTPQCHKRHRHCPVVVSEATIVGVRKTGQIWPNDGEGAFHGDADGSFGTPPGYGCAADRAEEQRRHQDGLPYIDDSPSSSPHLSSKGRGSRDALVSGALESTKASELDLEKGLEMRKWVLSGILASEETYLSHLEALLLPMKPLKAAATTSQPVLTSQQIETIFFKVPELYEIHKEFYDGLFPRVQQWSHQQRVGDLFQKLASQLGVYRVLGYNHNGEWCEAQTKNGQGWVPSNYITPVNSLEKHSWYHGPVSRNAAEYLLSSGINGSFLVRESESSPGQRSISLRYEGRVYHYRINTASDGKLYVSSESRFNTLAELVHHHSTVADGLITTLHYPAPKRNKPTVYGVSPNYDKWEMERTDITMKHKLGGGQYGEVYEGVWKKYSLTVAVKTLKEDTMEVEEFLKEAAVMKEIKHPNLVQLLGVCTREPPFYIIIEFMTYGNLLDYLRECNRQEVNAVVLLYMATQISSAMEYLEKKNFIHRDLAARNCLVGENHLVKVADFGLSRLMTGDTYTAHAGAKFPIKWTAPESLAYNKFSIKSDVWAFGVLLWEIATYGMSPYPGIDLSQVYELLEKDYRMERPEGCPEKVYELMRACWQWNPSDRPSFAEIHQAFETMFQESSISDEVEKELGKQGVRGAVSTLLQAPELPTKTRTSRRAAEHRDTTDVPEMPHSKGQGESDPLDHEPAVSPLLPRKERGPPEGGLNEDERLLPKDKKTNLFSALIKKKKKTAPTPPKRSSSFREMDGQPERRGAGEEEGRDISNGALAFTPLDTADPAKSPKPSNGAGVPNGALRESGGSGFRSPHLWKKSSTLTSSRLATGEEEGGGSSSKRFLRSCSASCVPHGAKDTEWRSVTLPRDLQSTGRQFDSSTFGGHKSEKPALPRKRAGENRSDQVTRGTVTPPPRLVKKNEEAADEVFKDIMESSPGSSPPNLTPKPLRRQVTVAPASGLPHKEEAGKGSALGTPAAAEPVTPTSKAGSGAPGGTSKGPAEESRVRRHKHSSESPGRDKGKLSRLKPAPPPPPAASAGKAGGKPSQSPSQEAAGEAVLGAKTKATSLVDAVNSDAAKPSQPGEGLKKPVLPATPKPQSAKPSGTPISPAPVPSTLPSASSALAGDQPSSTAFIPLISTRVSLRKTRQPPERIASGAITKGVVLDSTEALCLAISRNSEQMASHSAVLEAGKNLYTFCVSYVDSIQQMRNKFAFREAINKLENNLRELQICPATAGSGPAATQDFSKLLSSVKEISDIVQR
Chain of Non-specific protein-tyrosine kinase (A9UEZ6 whole entry): as the sequence (A9UEZ6 as listed by the source T818I) above, with I818T counted along it

In the case of `FC(F)(F)Oc1ccc(Nc2ncnc3c2cnn3Cc2cccnc2)cc1` [US9670214, TABLE 10.30], the pIC50 [1] was 7.52 and the pIC50 [2] was 6.22.
